Data on 1 molecule can be found in patent US10494404B2, “Quinolinium conjugates of cyclosporin” (priority 2014, dated 2019).

The subject of data set [1] is Ca^2+ mediated PT pore formation (CypD KO mitochondria). Briefly: Calcium retention capacity (CRC) assay, liver mitochondria from CypD knockout mice. The data set is classed as biochemical, mouse. The protocol:
Subcellular fractionation was performed as previously described (Astin et al, 2013). […] At 4° C., the liver was rinsed in PBS to remove excess blood, and any fat and connective tissue was eliminated. PBS was then replaced with isolation buffer containing 1 mM PMSF, and the liver was chopped into pieces (approximately 2 mm in length). Tissue was then homogenized in this solution until no solid matter remained, and then centrifuged at 800G for 10 minutes at 4° C. The nuclear pellet was then discarded, and the post nuclear supernatant retained, and centrifuged at 10300G for another 10 minutes at 4° C. […] Protein levels were quantified using a ThermoScientific BCA protein quantification assay, as per manufacturer's instructions.
Isolated mitochondria were resuspended (500 μg protein/ml) in MSK buffer (75 mM mannitol, 25 mM sucrose, 5 mM potassium phosphate monobasic, 20 mM Tris-HCl, 100 mM KCl, and 0.1% bovine serum albumin, pH 7.4) supplemented with 10 mM succinate, 1 μM rotenone and 1 μM Fluo5N. […] Compounds were incubated for ten minutes before the plate was assayed in a Fluostar Optima plate reader, using Ex/Em filters at 480/520 […]; CaCl2 was injected approximately every 6.5 minutes for 80 minutes (12 total injections, final concentration of 75 μM). […] Percentage inhibition for each [compound] was then calculated as the % of the corresponding value for the untreated condition. […]

Another data set deals with HepG2 cells. Briefly: HepG2 high content screening of cell health markers. The following applies: HepG2, 72 h exposure. In kind it is cell-based. The protocol:
HepG2 cells were plated on 96-well tissue culture treated black walled clear bottomed polystyrene plates, 100 μL, (3000 cells) per well. After 24 hours the cells were dosed with the test compounds at a range of concentrations. At the end of the incubation period, the cells were loaded with the relevant dye/antibody for each cell health markers set out below. The plates were then scanned using an automated fluorescent cellular imager [ArrayScan VTI (Thermo Scientific Cellomics)].
The following cell health markers were measured: • a. Cell count—a decreasing number of cells per well indicates toxicity due to necrosis, apoptosis or a reduction in cellular proliferation. • b. Nuclear area—an increase in nuclear size indicates necrosis or G2 cell cycle arrest and a decrease indicates apoptosis. • c. DNA structure—an increase in DNA structure indicates chromosomal instability and DNA fragmentation. • d. […]
HepG2 cells were seeded in black, clear-bottom 96-well tissue culture plates at a density of 3000 cells per well. […] Cell count, nuclear size and DNA structure were also measured Hoechst 33342 (Life Technologies). Following staining of the HepG2 cells fluorescence was analyzed by image acquisition with a Thermo Fisher Cellomics® ArrayScanVTI High Content Screening Reader (ThermoFisher Scientific Inc., Waltham, Mass.) and vHCS™ view software (ThermoFisher Scientific Inc.). […]

In data set [2] the test system is T cell proliferative response in the draining auricular lymph node. Briefly: Oxazolone contact hypersensitivity model, in vivo T cell proliferation. Further details: species or system mouse. Here is the method: To identify non-immunosuppressive doses of potential neuroprotective compounds for use in models of MS (Al-Izki et al, 2014) we employed a model using epicutaneous application of the ear skin sensitizer, oxazolone, to induce a T cell proliferative response in the draining auricular lymph node peaking 3 days later (Baker et al, 2011).
The contact sensitiser 4-ethoxymethylene-2-phenyl-2-oxazolin-5-one (oxazolone, OX, Sigma) was dissolved (25 mg/ml) in 4:1 acetone:olive oil (AOO). Mice (n=3 per group) received epicutaneous application of either 25 μl of 2.5% OX or AOO on the dorsum of the ear on day 0 (O'Neill et al, 1992). The draining auricular lymph nodes were removed three days later and the induced proliferative response was assessed as previously described. Briefly, 5×10^5 cells per well were cultured in RPMI-1640 medium with glutamate (Gibco®, Invitrogen Ltd, Paisley UK), supplemented with 0.5 mM sodium, in round-bottomed 96 well plates overnight at 37° C. in a humidified atmosphere of 5% CO2. In the presence of 1 μCi^3H-thymidine (PerkinElmer, Mass., USA) per well. […] Results are expressed as mean±SEM thymidine incorporation counts per minute (CPM)

`CC[C@@H]1NC(=O)[C@H]([C@H](O)[C@H](C)C/C=C/CCC[n+]2cccc3ccccc32)N(C)C(=O)[C@H](C(C)C)N(C)C(=O)[C@H](CC(C)C)N(C)C(=O)[C@H](CC(C)C)N(C)C(=O)[C@@H](C)NC(=O)[C@H](C)NC(=O)[C@H](CC(C)C)N(C)C(=O)[C@H](C(C)C)NC(=O)[C@H](CC(C)C)N(C)C(=O)CN(C)C1=O` [Compound 1, [Gly-(1S,2R,E)-8-quinolinium-1-hydroxy-2-methyloct-4-ene]^1 CsA]: in data set [1], the “effect on CRC” value is “Neither CsA nor Compound 1 had any effect”. For the same molecule, the “toxicity (cell health markers) compared with unmodified CsA” value in the data set on HepG2 cells was “significantly reduced the toxicity of cyclosporin”. The “effect on T cell response” value in data set [2] (daily 0.1 mg/kg i.p.) is recorded as “had no effect”; in data set [2] (daily 1 mg/kg i.p.), “had no effect”; in data set [2] (daily 10 mg/kg i.p.), “inhibited the T cell response”.
